Patent publication US20220226321A1, “INHIBITOR OF MNK FOR THE TREATMENT OF NEUROPATHIC PAIN” (Board of Regents, The University of Texas System, priority 2019, published 2022)
Read-outs that look alike come from different tables or passages of the source.

System: Nav1.8-positive nociceptors
Assay type: in vivo, mouse
[1] = input transcriptome of whole DRG, day 10

## CC(=O)O[C@H]1C(=O)[C@@]2(C)[C@H]([C@H](OC(=O)c3ccccc3)[C@]3(O)C[C@H](OC(=O)[C@H](O)[C@@H](NC(=O)c4ccccc4)c4ccccc4)C(C)=C1C3(C)C)[C@]1(OC(C)=O)CO[C@@H]1C[C@@H]2O [paclitaxel]
Nav1.8-TRAP after paclitaxel
  Log2FC Mxd3: 1.905
  Log2FC Ndufa4: 2.041
  Log2FC Ndufa8: 1.699
  Log2FC Ndufaf7: 2.358
  Log2FC Ndufs8: 2.837
  Log2FC Nedd9: 3.023
  Log2FC Ngfr: 1.805
  Log2FC Nipsna p3b: 2.057
  Log2FC Nme2: 3.66
  Log2FC Ntrk1: 2.2
  Log2FC Omg: 2.194
  Log2FC PIpp1: 2.874
  Log2FC Pafah2: 2.283
  Log2FC Pcbd2: 2.687
  Log2FC Pcdhb9: 2.519
  Log2FC Pex11b: 3.628
  Log2FC Pgrmc2: 1.76
  Log2FC Phpt1: 1.814
  Log2FC Pnrc2: 1.668
  Log2FC Polr1c: 2.731
  Log2FC Polr2j: 3.518
  Log2FC Ppdpf: 2.038
  Log2FC Ppp1ca: 2.094
  Log2FC Praf2: 2.335
  Log2FC Prdx5: 2.174
  Log2FC Prg4: 3.247
  Log2FC Prkrir: 2.096
  Log2FC Prkx: 2.201
  Log2FC Prm1: 1.732
  Log2FC Psma2: 2.07
  Log2FC Ptdss1: 1.681
  Log2FC Ptp4a3: 2.248
  Log2FC Ptprf: 1.742
  Log2FC Pxdc1: 3.578
  Log2FC Rad9a: 1.786
  Log2FC Rbc1: 1.841
  Log2FC Rcn3: 2.085
  Log2FC Rd54l: 4.965
  Log2FC Rft1: 3.183
  Log2FC Rho: 5.352
  Log2FC Rnase4: 2.356
  Log2FC Rnh1: 2.827
  Log2FC Romo1: 2.002
  Log2FC Rpl10a: 2.764
  Log2FC Rpl23a: 1.728
  Log2FC Rpl37: 2.314
  Log2FC Rpl39: 2.279
  Log2FC Rprm: 1.703
  Log2FC Rps2: 2.442
  Log2FC Rps29: 2.994
  Log2FC Rraga: 1.845
  Log2FC Rtn4rl1: 2.407
  Log2FC Rwdd1: 2.511
  Log2FC Sag: 1.948
  Log2FC Scpep1: 2.923
  Log2FC Sdhb: 3.236
  Log2FC Sec14I1: 2.129
  Log2FC Serp2: 2.805
  Log2FC Serpina3n: 2.549
  Log2FC Serping1: 3.002
  Log2FC Shisa5: 2.137
  Log2FC Slc3a2: 2.841
  Log2FC Slc6a15: 1.979
  Log2FC Slc25a3: 2.641
  Log2FC Slc30a6: 2.809
  Log2FC Slc48a1: 1.977
  Log2FC Smdt1: 2.016
  Log2FC Smug1: 4.754
  Log2FC Snrpg: 1.657
  Log2FC Soat2: 4.066
  Log2FC Sod1: 1.77
  Log2FC Sorbs1: 2.942
  Log2FC Spink10: 3.169
  Log2FC Synb: 3.1
  Log2FC Syngr3: 1.701
  Log2FC Tagln3: 2.101
  Log2FC Tdrp: 2.335
  Log2FC Tgm2: 2.739
  Log2FC Thoc7: 2.07
  Log2FC Timm8b: 2.815
  Log2FC Timm9: 1.838
  Log2FC Tmem9b: 1.818
  Log2FC Tmem14c: 1.657
  Log2FC Tmem53: 2.851
  Log2FC Tmem106b: 1.891
  Log2FC Tmem120b: 3.033
  Log2FC Tmem126a: 2.744
  Log2FC Tmem129: 2.655
  Log2FC Tnfaip8l3: 4.38
  Log2FC Tonsl: 1.762
  Log2FC Tpgs2: 2.076
  Log2FC Tram1: 2.174
  Log2FC Trap1: 2.447
  Log2FC Trim11: 2.395
  Log2FC Trpv1: 1.657
  Log2FC Tspan17: 2.337
  Log2FC Tubb4b: 2.111
  Log2FC Tyro3: 2.927
  Log2FC Ucp1: 3.795
  Log2FC Ufsp2: 1.927
  Log2FC Uqcrc2: 3.514
  Log2FC Uqcrq: 1.825
  Log2FC Use1: 1.748
  Log2FC Usmg5: 1.798
  Log2FC Vezf1: 1.933
  Log2FC Wbp2: 1.689
  Log2FC Wdr35: 2.68
  Log2FC ll15ra: 3.551
  Log2FC mt-Nd1: 1.74
TRAP fraction
  normalized TPM for the Rraga mRNA: 3.6±0.51
TRAP-seq after paclitaxel treatment
  increase in number of normalized reads mapping to the Rraga mRNA: 3.5 fold
TRAP-seq data set
  number of genes down regulated: 222
  number of genes up-regulated: 230
Gene Med6, upregulated in Nav1.8-TRAP after paclitaxel
  Log2FC Med6: 2.473
Gene Mien1, upregulated in Nav1.8-TRAP after paclitaxel
  Log2FC Mien1: 1.847
Gene Mmd, upregulated in Nav1.8-TRAP after paclitaxel
  Log2FC Mmd: 2.026
Gene Mob1a, upregulated in Nav1.8-TRAP after paclitaxel
  Log2FC Mob1a: 2.683
Gene Mob3b, upregulated in Nav1.8-TRAP after paclitaxel
  Log2FC Mob3b: 2.179
Gene Ythdf2, upregulated in Nav1.8-TRAP after paclitaxel
  Log2FC Ythdf2: 1.866
Gene Ywhaq, upregulated in Nav1.8-TRAP after paclitaxel
  Log2FC Ywhaq: 1.837
Gene Zfp386, upregulated in Nav1.8-TRAP after paclitaxel
  Log2FC Zfp386: 3.022
Gene Zfp467, upregulated in Nav1.8-TRAP after paclitaxel
  Log2FC Zfp467: 2.147
Gene Zyx, upregulated in Nav1.8-TRAP after paclitaxel
  Log2FC Zyx: 2.08
Input fraction
  normalized TPM for the Rraga mRNA: 2.04±0.17
[1]
  number of genes down-regulated: 1
  number of genes up-regulated: 4
mouse, in vivo
  Log2FC Stx2: 1.896
